Laboratory results from ChEMBL document CHEMBL3751838, “Cytotoxic Activity of Salicylic Acid-Containing Drug Models with Ionic and Covalent Binding” (ACS Med Chem Lett, 2015).
Values belong to the compound of their own block, whether it stands above or below them.

Key:
[1] = Cytotoxicity against human Caco2 cells after 24 hrs by MTT assay; format: functional, cell-based, Caco-2
cells = format: ADME, cell-based; settings: Homo sapiens, 3215LS, 24 h
Description: Cytotoxicity against human 3215LS cells after 24 hrs by MTT assay

[2] = Aqueous solubility of compound at room temperature; format: physicochemical; settings: water

Structure (SMILES): CCn1cc[n+](C)c1 [listing 1 of 2 here]
IC50 ([1]; caco-2): 32.1 mM

IC50 (cells): 3.19 mM
Structure (SMILES): C[n+]1ccn(CCCOC(=O)c2ccccc2O)c1
IC50 ([1]; Homo sapiens, Caco-2, 24 h): 2.55 mM

Structure (SMILES): CCCCCCn1cc[n+](C)c1 [listing 1 of 2 here]
IC50 ([1]; caco-2): 1.96 mM

Structure (SMILES): CCCCn1cc[n+](C)c1 [listing 1 of 3 here]
IC50 ([1]; caco-2): 11.2 mM

Structure (SMILES): CCn1cc[n+](C)c1 [listing 2 of 2 here]
IC50 ([1]; caco-2): 5.97 mM

Structure (SMILES): CCCCn1cc[n+](C)c1 [listing 2 of 3 here]
IC50 ([1]; caco-2): 18.8 mM

IC50 (cells): 2.63 mM
Structure (SMILES): COC(=O)[C@H](C)N
IC50 ([1]; Homo sapiens, Caco-2, 24 h): 6.24 mM

Structure (SMILES): CCCCCCn1cc[n+](C)c1 [listing 2 of 2 here]
IC50 ([1]; caco-2): 6.21 mM

Structure (SMILES): C[n+]1ccn(CCOC(=O)c2ccccc2O)c1
IC50 ([1]; Homo sapiens, Caco-2, 24 h): 4.77 mM

Structure (SMILES): CCCCn1cc[n+](C)c1 [listing 3 of 3 here]
IC50 ([1]; caco-2): 4.34 mM

Structure (SMILES): O=C(O)c1ccccc1O [SALICYLIC ACID]
IC50 ([1]; Homo sapiens, Caco-2, 24 h): 5 mM
IC50 (cells): 1.14 mM

solubility [2]: 267 mg/mL
Structure (SMILES): C[n+]1ccn(CCOC(=O)c2ccccc2O)c1.[Cl-]
IC50 ([1]; caco-2): 3.82 mM
